According to ChEMBL document CHEMBL3727364, “Resorcinol n-aryl amide compounds, for use as pyruvate dehydrogenase kinase inhibitors” (2015):
pIC50: −log10 of the molar value.

Tests used:
[1] = molecular target: Pyruvate dehydrogenase kinase (Homo sapiens, UniProt Q15119+Q15120+Q16654+Q15118); assay: Inhibition of pyruvate dehydrogenase kinase in human PC3 cells incubated for 90 mins by phospho(Ser293)E1alpha MSP ELISA method; assay type: cell-based; settings: pc-3
[2] = molecular target: [Pyruvate dehydrogenase (acetyl-transferring)] kinase isozyme 1, mitochondrial (Homo sapiens, UniProt Q15118); assay: Binding affinity to pyruvate dehydrogenase kinase 1 (unknown origin) incubated for 90 mins by VER-00160364 probe based fluorescence polarization assay
Sequence of [Pyruvate dehydrogenase (acetyl-transferring)] kinase isozyme 1, mitochondrial (Q15118 whole entry): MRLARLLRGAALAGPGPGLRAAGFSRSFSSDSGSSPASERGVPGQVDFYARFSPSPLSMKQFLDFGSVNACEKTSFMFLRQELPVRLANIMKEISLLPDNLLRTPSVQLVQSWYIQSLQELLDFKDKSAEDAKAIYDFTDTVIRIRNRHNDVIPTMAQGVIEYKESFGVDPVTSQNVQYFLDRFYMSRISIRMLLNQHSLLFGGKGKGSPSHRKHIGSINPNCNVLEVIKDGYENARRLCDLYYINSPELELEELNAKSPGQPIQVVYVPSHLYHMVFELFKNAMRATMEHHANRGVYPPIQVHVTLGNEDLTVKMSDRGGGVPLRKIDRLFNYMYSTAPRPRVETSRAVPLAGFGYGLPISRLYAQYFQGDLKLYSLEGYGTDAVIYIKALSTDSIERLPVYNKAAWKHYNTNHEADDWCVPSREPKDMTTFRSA

Row | Structure (SMILES) | IC50 [1] [nM] | pIC50 [2]
1 | Cc1cc(S(=O)(=O)NCc2cccs2)cnc1-c1ccc(N(Cc2cnsc2)C(=O)c2ccc(O)cc2O)cc1 | 1000 | 
2 | Cc1cnc(Cl)nc1-c1ccc(N(Cc2ccc(CN3CCC(F)(F)C3)cc2)C(=O)c2ccc(O)cc2O)cc1 | 100 | 
3 | Cc1cc(S(=O)(=O)NCc2cccs2)cnc1-c1ccc(N(Cc2cccnc2)C(=O)c2ccc(O)cc2O)cc1 | 1000 | 8.00
4 | Cc1cnc(Cl)nc1-c1ccc(N(Cc2cccc(CN3CCCCC3)c2)C(=O)c2ccc(O)cc2O)cc1 | 1000 | 
5 | Cc1cc(S(=O)(=O)N2CC(F)(F)C2)cnc1-c1ccc(N(Cc2ccccc2)C(=O)c2ccc(O)cc2O)cc1 | 10000 | 7.00
6 | Cc1cc2ccccc2nc1-c1ccc(N(Cc2ccc(OCCN3CCCC3)cc2)C(=O)c2ccc(O)cc2O)cc1 | 1000 | 
7 | CCN(CC)CCOc1ccc(CN(C(=O)c2ccc(O)cc2O)c2ccc(-c3nc4ccccc4cc3C)cc2)cc1 | 1000 | 
8 | Cc1cnc(Cl)nc1-c1ccc(N(Cc2ccc(CNC(=O)C3CCC3)cc2)C(=O)c2ccc(O)cc2O)cc1 | 100 | 
9 | Cc1cc2cc(Cl)ccc2nc1-c1ccc(N(Cc2cccnc2)C(=O)c2ccc(O)cc2O)cc1 |  | 7.00
10 | Cc1c(Cl)ncc2cc(-c3ccc(N(Cc4cccnc4)C(=O)c4ccc(O)cc4O)cc3)ccc12 |  | 6.00
11 | Cc1cnc(Cl)nc1-c1ccc(N(Cc2ccc(CNC(=O)[C@H](C)NC(=O)OCc3ccccc3)cc2)C(=O)c2ccc(O)cc2O)cc1 | 100 | 
12 | Cc1cc2cccc(C)c2nc1-c1ccc(N(Cc2cccnc2)C(=O)c2ccc(O)cc2O)cc1 |  | 6.00
13 | Cc1cc(S(=O)(=O)N2CCOCC2)cnc1-c1ccc(N(Cc2cccnc2)C(=O)c2ccc(O)cc2O)cc1 |  | 8.00
14 | Cc1cnc(Cl)nc1-c1ccc(N(Cc2cccc(OCCN3CCOCC3)c2)C(=O)c2ccc(O)cc2O)cc1 | 1000 | 
15 | Cc1cc2ccccc2nc1-c1ccc(N(Cc2ccc(-c3ccccc3)cc2)C(=O)c2ccc(O)cc2O)cc1 |  | 7.00
16 | O=C(c1ccc(O)cc1O)N(Cc1ccccc1)c1ccc(-c2nncc3ccccc23)cc1 |  | 6.00
17 | O=C(c1ccc(O)cc1O)N(Cc1cccnc1)c1ccc(-c2ccc(-n3ccnc3)nn2)cc1 |  | 6.00
18 | O=C(c1ccc(O)cc1O)N(Cc1ccccc1)c1ccc(-c2nc(Cl)nc3c2COCC3)cc1 |  | 6.00
19 | NC(=O)c1nc(-c2ccc(N(Cc3ccccc3)C(=O)c3ccc(O)cc3O)cc2)c2ccccc2n1 |  | 5.00

Row | Structure (SMILES) | IC50 [1] [nM] | pIC50 [2]
20 | CCOc1ccc2nc(-c3ccc(N(Cc4cccnc4)C(=O)c4ccc(O)cc4O)cc3)c(C)cc2c1 |  | 7.00
21 | CCc1cc2ccccc2nc1-c1ccc(N(Cc2cccnc2)C(=O)c2ccc(O)cc2O)cc1 |  | 7.00
22 | O=C(Nc1ccc(N(Cc2ccccc2)C(=O)c2ccc(O)cc2O)cc1)NC1CCCC1 |  | 5.00
23 | O=C(Nc1ccc(N(Cc2ccccc2)C(=O)c2ccc(O)cc2O)cc1)NC1CCNCC1 |  | 5.00
24 | O=C(c1ccc(O)cc1O)N(Cc1cccnc1)c1ccc(-c2ncccc2CO)cc1 |  | 7.00
25 | O=C(Nc1ccc(N(Cc2ccccc2)C(=O)c2ccc(O)cc2O)cc1)Nc1cccnc1 |  | 6.00
26 | CCNc1cc(-c2ccc(N(Cc3cccnc3)C(=O)c3ccc(O)cc3O)cc2)ncn1 |  | 6.00
27 | Cc1cn(-c2ccc(-c3ccc(N(Cc4ccccc4)C(=O)c4ccc(O)cc4O)cc3)nn2)cn1 |  | 6.00
28 | COC1CCN(Cc2ccc(CN(C(=O)c3ccc(O)cc3O)c3ccc(-c4nc(Cl)ncc4C)cc3)cc2)C1 (stereo unspecified) | 100 | 
29 | CNc1nccc(-c2ccc(N(Cc3ccccc3)C(=O)c3ccc(O)cc3O)cc2)n1 |  | 5.00
30 | COc1ccc(-c2ccc(N(Cc3cccnc3)C(=O)c3ccc(O)cc3O)cc2)c(OC)c1 |  | 6.00
31 | O=C(c1ccc(O)cc1O)N(Cc1ccccc1)c1ccc(-c2ccccc2Cl)cc1 |  | 8.00
32 | O=C(O)c1nc(-c2ccc(N(Cc3ccccc3)C(=O)c3ccc(O)cc3O)cc2)c2ccccc2n1 |  | 6.00
33 | Cc1cc(S(=O)(=O)NCc2cccs2)cnc1-c1ccc(N(Cc2ccccc2)C(=O)c2ccc(O)cc2O)cc1 |  | 8.00
34 | O=C(c1ccc(O)cc1O)N(Cc1cccnc1)c1ccc(-c2nc(Cl)nc3c2COCC3)cc1 |  | 7.00
35 | Cc1cc2ccccc2nc1-c1ccc(N(Cc2ccc(Cl)cc2)C(=O)c2ccc(O)cc2O)cc1 |  | 6.00
36 | CSc1nc(Cl)cc(-c2ccc(N(Cc3cccnc3)C(=O)c3ccc(O)cc3O)cc2)n1 |  | 6.00
37 | Cc1cc(S(=O)(=O)N2CCCCC2)cnc1-c1ccc(N(Cc2cccnc2)C(=O)c2ccc(O)cc2O)cc1 |  | 8.00
38 | O=C(c1ccc(O)cc1O)N(Cc1ccccc1)c1ccc(-c2ncnc3cccc(F)c23)cc1 |  | 6.00

More lines, now with the values ahead:

Row | IC50 [1] [nM] | pIC50 [2] | Structure (SMILES)
39 | 1000 |  | Cc1cnc(Cl)nc1-c1ccc(N(Cc2cccc(CN(C)C)c2)C(=O)c2ccc(O)cc2O)cc1
40 | 1000 |  | Cc1cc(S(=O)(=O)NCc2ccccn2)cnc1-c1ccc(N(Cc2ccsc2)C(=O)c2cc(Cl)c(O)cc2O)cc1
41 | 100 |  | Cc1cnc(Cl)nc1-c1ccc(N(Cc2cccc(Cl)c2)C(=O)c2ccc(O)cc2O)cc1
42 | 1000 | 8.00 | Cc1cnc(Cl)nc1-c1ccc(N(Cc2cccnc2)C(=O)c2ccc(O)cc2O)cc1
43 | 1000 |  | Cc1cc(C(=O)N(Cc2ccccc2)c2ccc(C(=O)N(C)C)cc2)c(O)cc1O
44 | 1000 |  | CCc1cnc(C)nc1-c1ccc(N(Cc2ccsc2)C(=O)c2ccc(O)cc2O)cc1
45 | 1000 | 7.00 | Cc1cc(S(=O)(=O)N2CCOCC2)cnc1-c1ccc(N(Cc2ccsc2)C(=O)c2ccc(O)cc2O)cc1
46 | 1000 |  | Cc1cnc(Cl)nc1-c1ccc(N(Cc2cccc(OCCN(C)C)c2)C(=O)c2ccc(O)cc2O)cc1
47 | 1000 | 7.00 | COC(=O)c1nc(-c2ccc(N(Cc3ccsc3)C(=O)c3ccc(O)cc3O)cc2)c2ccccc2n1
48 | 1000 | 7.00 | COc1ccc(CN(C)C(=O)c2ccc(N(Cc3cc(C)no3)C(=O)c3cc(Cl)c(O)cc3O)cc2)cc1
49 | 1000 |  | COc1cnc(Cl)nc1-c1ccc(N(Cc2cnsc2)C(=O)c2ccc(O)cc2O)cc1
50 | 1000 |  | Cc1cc(C(=O)N(Cc2ccccc2)c2ccc(C(=O)N(C)Cc3ccc4nccnc4c3)cc2)c(O)cc1O
51 |  | 8.00 | Cc1cc(C(=O)N(Cc2ccsc2)c2ccc(C(=O)N(C)Cc3ccc4nccnc4c3)cc2)c(O)cc1O
52 |  | 7.00 | CN(C)C(=O)c1ccc(N(Cc2cccc(C#N)c2)C(=O)c2cc(Cl)c(O)cc2O)cc1
53 |  | 6.00 | CNC(=O)c1ccc(N(Cc2ccccc2)C(=O)c2ccc(O)cc2O)cc1
54 |  | 5.00 | COc1cc(-c2ccc(N(Cc3ccsc3)C(=O)c3ccc(O)cc3O)cc2)cnc1OC
55 |  | 7.00 | Cc1cc(C(=O)N(Cc2ccsc2)c2ccc(C(=O)N(C)C)cc2)c(O)cc1O
56 |  | 6.00 | Cc1ccc(C)c(-c2ccc(N(Cc3cccnc3)C(=O)c3ccc(O)cc3O)cc2)n1
57 |  | 6.00 | O=C(NC1CC1)c1ccc(N(Cc2cccnc2)C(=O)c2ccc(O)cc2O)cc1
58 |  | 6.00 | O=C(c1ccc(O)cc1O)N(Cc1ccsc1)c1ccc(-c2ncnc3ccc(Cl)cc23)cc1
59 |  | 5.00 | CN(Cc1cccc(C(F)(F)F)c1)C(=O)c1ccc(N(Cc2ccccc2)C(=O)c2ccc(O)cc2O)cc1
60 |  | 5.00 | Cc1cnc(NC(C)C)nc1-c1ccc(N(Cc2ccccc2)C(=O)c2ccc(O)cc2O)cc1
61 |  | 7.00 | CNS(=O)(=O)c1cnc(-c2ccc(N(Cc3ccccc3)C(=O)c3ccc(O)cc3O)cc2)c(C)c1
62 |  | 7.00 | CN(C)C(=O)c1ccc(N(CCN2CCCCC2)C(=O)c2cc(Cl)c(O)cc2O)cc1

Row | IC50 [1] [nM] | pIC50 [2] | Structure (SMILES)
63 |  | 6.00 | CN(C)C(=O)c1ccc(N(Cc2csc3ccc(Cl)cc23)C(=O)c2cc(Cl)c(O)cc2O)cc1
64 |  | 6.00 | Cc1cccnc1-c1ccc(N(Cc2ccccc2)C(=O)c2cc(Cl)c(O)cc2O)cc1
65 |  | 7.00 | CN(Cc1cccc2ncccc12)C(=O)c1ccc(N(Cc2ccsc2)C(=O)c2ccc(O)cc2O)cc1
66 |  | 8.00 | CN(Cc1cccc2cnccc12)C(=O)c1ccc(N(Cc2ccsc2)C(=O)c2ccc(O)cc2O)cc1
67 |  | 6.00 | O=C(c1ccc(O)cc1O)N(Cc1ccsc1)c1ccc(-c2ncnc3ccsc23)cc1
68 |  | 6.00 | Cc1cc(-c2ccc(N(Cc3cccnc3)C(=O)c3ccc(O)cc3O)cc2)nnc1Cl
69 |  | 6.00 | Cc1cc(N)ncc1-c1ccc(N(Cc2ccccc2)C(=O)c2ccc(O)cc2O)cc1
70 |  | 7.00 | COCCN(C)S(=O)(=O)c1cnc(-c2ccc(N(Cc3ccccc3)C(=O)c3ccc(O)cc3O)cc2)c(C)c1
71 |  | 8.00 | Cc1cnc(-c2ccc(N(Cc3cccnc3)C(=O)c3ccc(O)cc3O)cc2)c(C)n1
72 |  | 7.00 | CN(Cc1cccc2cnccc12)C(=O)c1ccc(N(Cc2ccccc2)C(=O)c2ccc(O)cc2O)cc1
73 |  | 6.00 | COc1cc(-c2ccc(N(Cc3cccnc3)C(=O)c3ccc(O)cc3O)cc2)ncn1
74 |  | 7.00 | Cc1cc(S(=O)(=O)NCc2ccccc2)cnc1-c1ccc(N(Cc2ccsc2)C(=O)c2ccc(O)cc2O)cc1
75 |  | 7.00 | CN(Cc1ccc2ccccc2n1)C(=O)c1ccc(N(Cc2cccnc2)C(=O)c2ccc(O)cc2O)cc1
76 |  | 7.00 | CN(Cc1cccc2cccnc12)C(=O)c1ccc(N(Cc2cccnc2)C(=O)c2ccc(O)cc2O)cc1
77 | 100 |  | Cc1cnc(Cl)nc1-c1ccc(N(Cc2ccc(CNC(=O)c3cccs3)cc2)C(=O)c2ccc(O)cc2O)cc1
78 |  | 7.00 | CN(Cc1cccc2ncccc12)C(=O)c1ccc(N(Cc2ccccc2)C(=O)c2ccc(O)cc2O)cc1
79 |  | 5.00 | CCNc1cc(-c2ccc(N(Cc3ccsc3)C(=O)c3ccc(O)cc3O)cc2)ncn1
80 |  | 5.00 | Cc1cc(-c2ccc(N(Cc3ccccc3)C(=O)c3ccc(O)cc3O)cc2)nnc1Cl
81 |  | 8.00 | COc1ccc(CN(C)C(=O)c2ccc(N(Cc3cccnc3)C(=O)c3ccc(O)cc3O)cc2)cc1
82 |  | 7.00 | COc1ccc(CN(C)C(=O)c2ccc(N(Cc3ccsc3)C(=O)c3cc(Cl)c(O)cc3O)cc2)cc1
83 |  | 7.00 | COc1ccc(CNC(=O)c2ccc(N(Cc3cccnc3)C(=O)c3ccc(O)cc3O)cc2)cc1
84 |  | 7.00 | CN(Cc1cccc2cccnc12)C(=O)c1ccc(N(Cc2ccccc2)C(=O)c2ccc(O)cc2O)cc1
85 |  | 6.00 | Cc1nc(-c2ccc(N(Cc3ccsc3)C(=O)c3ccc(O)cc3O)cc2)c2ccccc2n1
